What was measured:
Type in all cases: in vivo
[1] = test system: birds-eye speedwell; assay: Test Example 3: weedkilling efficacy through soil treatment; p: birds-eye speedwell; details: treatment dosage 315 g/ha
Method in brief: (§1)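 Crop and weed responses were judged three weeks after a uniform surface spray of the water-diluted emulsion at the given g/ha rate. Seeds sat beneath about 1.5 cm of sterilized diluvial soil, and boxes stood in a greenhouse at 25 to 30° C.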

[2] = test system: barnyard grass; assay: Test Example 4: weedkilling efficacy by foliar treatment; F: barnyard grass; details: treatment dosage 315 g/ha
Method in brief: (§2)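 Seeds are spot-sown into sterilized diluvial soil and covered with about 1.5 cm of soil. After 14 days' greenhouse growth at 25 to 30° C, plants are sprayed on stems and leaves with diluted emulsion at the stated g/ha rate, then scored at 3 weeks.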

[3] = test system: black-grass; assay: Test Example 3: weedkilling efficacy through soil treatment; H: black-grass; details: treatment dosage 315 g/ha
Method in brief: as §1

[4] = test system: barnyard grass; assay: Test Example 2: weedkilling efficacy, growth period weed treatment in the submerged state; A: barnyard grass; details: treatment dosage 252 g/ha
Method in brief: (§3)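 Barnyard grass, bulrush and oval-leafed pondweed sown in alluvial soil under 4 cm flooding, greenhouse 25 to 30° C. At 1-2 leaf stage, water-diluted emulsion applied to the water surface at stated g/ha dosages; effects scored 3 weeks later.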

[5] = test system: transplanted rice; assay: Test Example 1: preemergent weed treatment in the submerged state, effect on crop; a: transplanted rice; details: treatment dosage 252 g/ha
Method in brief: (§4)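 Pots of alluvial soil flooded 4 cm deep, sown with barnyard grass, bulrush and oval-leafed pondweed and transplanted with 2.5-leaf rice. Emulsified compound applied to the water surface on sowing day at stated g/ha; greenhouse 25–30 °C, effects assessed 3 weeks after treatment.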

[6] = test system: bulrush; assay: Test Example 2: weedkilling efficacy, growth period weed treatment in the submerged state; B: bulrush; details: treatment dosage 252 g/ha
Method in brief: as §3

[7] = test system: common wind-grass; assay: Test Example 4: weedkilling efficacy by foliar treatment; J: common wind-grass; details: treatment dosage 315 g/ha
Method in brief: as §2

[8] = test system: corn; assay: Test Example 4: foliar treatment, effect on crop; c: corn; details: treatment dosage 315 g/ha
Method in brief: as §2

[9] = test system: wheat; assay: Test Example 4: foliar treatment, effect on crop; e: wheat; details: treatment dosage 315 g/ha
Method in brief: as §2

[10] = test system: directly sown rice; assay: Test Example 3: soil treatment, effect on crop; b: directly sown rice; details: treatment dosage 315 g/ha
Method in brief: as §1

[11] = test system: beet; assay: Test Example 3: soil treatment, effect on crop; f: beet; details: treatment dosage 315 g/ha
Method in brief: as §1

[12] = test system: rapeseed; assay: Test Example 4: foliar treatment, effect on crop; g: rapeseed; details: treatment dosage 315 g/ha
Method in brief: as §2

[13] = test system: Indian mallow; assay: Test Example 3: weedkilling efficacy through soil treatment; K: Indian mallow; details: treatment dosage 315 g/ha
Method in brief: as §1

[14] = test system: barnyard grass; assay: Test Example 3: weedkilling efficacy through soil treatment; F: barnyard grass; details: treatment dosage 315 g/ha
Method in brief: as §1

[15] = test system: common wind-grass; assay: Test Example 3: weedkilling efficacy through soil treatment; J: common wind-grass; details: treatment dosage 315 g/ha
Method in brief: as §1

[16] = test system: rapeseed; assay: Test Example 3: soil treatment, effect on crop; g: rapeseed; details: treatment dosage 315 g/ha
Method in brief: as §1

[17] = test system: crabgrass; assay: Test Example 4: weedkilling efficacy by foliar treatment; D: crabgrass; details: treatment dosage 315 g/ha
Method in brief: as §2

[18] = test system: chickweed; assay: Test Example 3: weedkilling efficacy through soil treatment; N: chickweed; details: treatment dosage 315 g/ha
Method in brief: as §1

[19] = test system: Italian ryegrass; assay: Test Example 4: weedkilling efficacy by foliar treatment; I: Italian ryegrass; details: treatment dosage 315 g/ha
Method in brief: as §2

[20] = test system: directly sown rice; assay: Test Example 4: foliar treatment, effect on crop; b: directly sown rice; details: treatment dosage 315 g/ha
Method in brief: as §2

[21] = test system: wheat; assay: Test Example 3: soil treatment, effect on crop; e: wheat; details: treatment dosage 315 g/ha
Method in brief: as §1

[22] = test system: green foxtail; assay: Test Example 3: weedkilling efficacy through soil treatment; E: green foxtail; details: treatment dosage 315 g/ha
Method in brief: as §1

[23] = test system: oval-leafed pondweed; assay: Test Example 1: weedkilling efficacy, preemergent weed treatment in the submerged state; C: oval-leafed pondweed; details: treatment dosage 252 g/ha
Method in brief: as §4

[24] = test system: chickweed; assay: Test Example 4: weedkilling efficacy by foliar treatment; N: chickweed; details: treatment dosage 315 g/ha
Method in brief: as §2

[25] = test system: oval-leafed pondweed; assay: Test Example 2: weedkilling efficacy, growth period weed treatment in the submerged state; C: oval-leafed pondweed; details: treatment dosage 252 g/ha
Method in brief: as §3

[26] = test system: redroot pigweed; assay: Test Example 3: weedkilling efficacy through soil treatment; L: redroot pigweed; details: treatment dosage 315 g/ha
Method in brief: as §1

[27] = test system: barnyard grass; assay: Test Example 1: weedkilling efficacy, preemergent weed treatment in the submerged state; A: barnyard grass; details: treatment dosage 252 g/ha
Method in brief: as §4

[28] = test system: birds-eye speedwell; assay: Test Example 4: weedkilling efficacy by foliar treatment; p: birds-eye speedwell; details: treatment dosage 315 g/ha
Method in brief: as §2

[29] = test system: green foxtail; assay: Test Example 4: weedkilling efficacy by foliar treatment; E: green foxtail; details: treatment dosage 315 g/ha
Method in brief: as §2

[30] = test system: wild oat; assay: Test Example 3: weedkilling efficacy through soil treatment; G: wild oat; details: treatment dosage 315 g/ha
Method in brief: as §1

[31] = test system: corn; assay: Test Example 3: soil treatment, effect on crop; c: corn; details: treatment dosage 315 g/ha
Method in brief: as §1

[32] = test system: catchweed; assay: Test Example 4: weedkilling efficacy by foliar treatment; O: catchweed; details: treatment dosage 315 g/ha
Method in brief: as §2

[33] = test system: wild oat; assay: Test Example 4: weedkilling efficacy by foliar treatment; G: wild oat; details: treatment dosage 315 g/ha
Method in brief: as §2

[34] = test system: crabgrass; assay: Test Example 3: weedkilling efficacy through soil treatment; D: crabgrass; details: treatment dosage 315 g/ha
Method in brief: as §1

[35] = test system: bulrush; assay: Test Example 1: weedkilling efficacy, preemergent weed treatment in the submerged state; B: bulrush; details: treatment dosage 252 g/ha
Method in brief: as §4

[36] = test system: beet; assay: Test Example 4: foliar treatment, effect on crop; f: beet; details: treatment dosage 315 g/ha
Method in brief: as §2

[37] = test system: catchweed; assay: Test Example 3: weedkilling efficacy through soil treatment; O: catchweed; details: treatment dosage 315 g/ha
Method in brief: as §1

[38] = test system: redroot pigweed; assay: Test Example 4: weedkilling efficacy by foliar treatment; L: redroot pigweed; details: treatment dosage 315 g/ha
Method in brief: as §2

[39] = test system: Italian ryegrass; assay: Test Example 3: weedkilling efficacy through soil treatment; I: Italian ryegrass; details: treatment dosage 315 g/ha
Method in brief: as §1

[40] = test system: soybean; assay: Test Example 4: foliar treatment, effect on crop; d: soybean; details: treatment dosage 315 g/ha
Method in brief: as §2

[41] = test system: soybean; assay: Test Example 3: soil treatment, effect on crop; d: soybean; details: treatment dosage 315 g/ha
Method in brief: as §1

[42] = test system: Indian mallow; assay: Test Example 4: weedkilling efficacy by foliar treatment; K: Indian mallow; details: treatment dosage 315 g/ha
Method in brief: as §2

[43] = test system: black-grass; assay: Test Example 4: weedkilling efficacy by foliar treatment; H: black-grass; details: treatment dosage 315 g/ha
Method in brief: as §2

Compound: CC1=C(c2ccccc2)C(=O)N(C(C)(C)C(=O)Nc2cc(C)cnc2Cl)CO1 [B-3-04]
- P (birds-eye speedwell) weedkilling efficacy grade [1]: 4 (weed kill ratio 70% or more, less than 90%)
- F (barnyard grass) weedkilling efficacy grade [2]: 3 (weed kill ratio 40% or more, less than 70%)
- H (black-grass) weedkilling efficacy grade [3]: 4 (weed kill ratio 70% or more, less than 90%)
- A (barnyard grass) weedkilling efficacy grade [4]: 4 (weed kill ratio 70% or more, less than 90%)
- a (transplanted rice) effect on crop grade [5]: 0 (weed kill ratio 5% or less (practically no effect))
- B (bulrush) weedkilling efficacy grade [6]: 4 (weed kill ratio 70% or more, less than 90%)
- J (common wind-grass) weedkilling efficacy grade [7]: 4 (weed kill ratio 70% or more, less than 90%)
- c (corn) effect on crop grade [8]: 0 (weed kill ratio 5% or less (practically no effect))
- e (wheat) effect on crop grade [9]: 0 (weed kill ratio 5% or less (practically no effect))
- b (directly sown rice) effect on crop grade [10]: 1 (weed kill ratio 5% or more, less than 20%)
- f (beet) effect on crop grade [11]: 1 (weed kill ratio 5% or more, less than 20%)
- g (rapeseed) effect on crop grade [12]: 1 (weed kill ratio 5% or more, less than 20%)
- K (Indian mallow) weedkilling efficacy grade [13]: 0 (weed kill ratio 5% or less (practically no effect))
- F (barnyard grass) weedkilling efficacy grade [14]: 5 (weed kill ratio 90% or more, (practically complete withering))
- J (common wind-grass) weedkilling efficacy grade [15]: 5 (weed kill ratio 90% or more, (practically complete withering))
- g (rapeseed) effect on crop grade [16]: 0 (weed kill ratio 5% or less (practically no effect))
- D (crabgrass) weedkilling efficacy grade [17]: 3 (weed kill ratio 40% or more, less than 70%)
- N (chickweed) weedkilling efficacy grade [18]: 3 (weed kill ratio 40% or more, less than 70%)
- I (Italian ryegrass) weedkilling efficacy grade [19]: 3 (weed kill ratio 40% or more, less than 70%)
- b (directly sown rice) effect on crop grade [20]: 0 (weed kill ratio 5% or less (practically no effect))
- e (wheat) effect on crop grade [21]: 0 (weed kill ratio 5% or less (practically no effect))
- E (green foxtail) weedkilling efficacy grade [22]: 5 (weed kill ratio 90% or more, (practically complete withering))
- C (oval-leafed pondweed) weedkilling efficacy grade [23]: 4 (weed kill ratio 70% or more, less than 90%)
- N (chickweed) weedkilling efficacy grade [24]: 3 (weed kill ratio 40% or more, less than 70%)
- C (oval-leafed pondweed) weedkilling efficacy grade [25]: 3 (weed kill ratio 40% or more, less than 70%)
- L (redroot pigweed) weedkilling efficacy grade [26]: 0 (weed kill ratio 5% or less (practically no effect))
- A (barnyard grass) weedkilling efficacy grade [27]: 5 (weed kill ratio 90% or more, (practically complete withering))
- P (birds-eye speedwell) weedkilling efficacy grade [28]: 3 (weed kill ratio 40% or more, less than 70%)
- E (green foxtail) weedkilling efficacy grade [29]: 4 (weed kill ratio 70% or more, less than 90%)
- G (wild oat) weedkilling efficacy grade [30]: 3 (weed kill ratio 40% or more, less than 70%)
- c (corn) effect on crop grade [31]: 0 (weed kill ratio 5% or less (practically no effect))
- O (catchweed) weedkilling efficacy grade [32]: 2 (weed kill ratio 20% or more, less than 40%)
- G (wild oat) weedkilling efficacy grade [33]: 3 (weed kill ratio 40% or more, less than 70%)
- D (crabgrass) weedkilling efficacy grade [34]: 5 (weed kill ratio 90% or more, (practically complete withering))
- B (bulrush) weedkilling efficacy grade [35]: 5 (weed kill ratio 90% or more, (practically complete withering))
- f (beet) effect on crop grade [36]: 2 (weed kill ratio 20% or more, less than 40%)
- O (catchweed) weedkilling efficacy grade [37]: 2 (weed kill ratio 20% or more, less than 40%)
- L (redroot pigweed) weedkilling efficacy grade [38]: 0 (weed kill ratio 5% or less (practically no effect))
- I (Italian ryegrass) weedkilling efficacy grade [39]: 5 (weed kill ratio 90% or more, (practically complete withering))
- d (soybean) effect on crop grade [40]: 0 (weed kill ratio 5% or less (practically no effect))
- d (soybean) effect on crop grade [41]: 0 (weed kill ratio 5% or less (practically no effect))
- K (Indian mallow) weedkilling efficacy grade [42]: 2 (weed kill ratio 20% or more, less than 40%)
- H (black-grass) weedkilling efficacy grade [43]: 3 (weed kill ratio 40% or more, less than 70%)
